The record followed here is article PMC6992764 (Nature Communications, 2020).

In the assay the test system is Lewis lung carcinoma (LLC). As to the kind of experiment: LLC subcutaneous tumor-growth model. The format is in vivo, mice. The procedure:
For evaluating subcutaneous tumor growth, LLC or B16 cells (5 × 10^5) in 50 μl PBS were inoculated subcutaneously into the right flanks of mice. Mice were euthanized when their tumor volumes reached 4000 mm^3. Tumor sizes were measured twice a week using calipers. Tumor volume was calculated using the following formula: Volume = (width)^2 × length/2. For the lung metastasis model, 1 × 10^6 LLC or B16 cells in 200 μl PBS were injected intravenously into mice. Mice were euthanized at day 10 after tumor injection for the LLC model and day 5–9 for the B16 model, and the lungs were isolated after perfusion with PBS via the left ventricle. Visible lung metastases were counted in the left lobe. The diameters of metastatic nodules in the lung lobe image were measured using ImageJ software. […]
Cells for flow cytometric analysis were prepared as follows: bone marrow cells were flushed from femurs, followed by incubation with ACK buffer to remove red blood cells. […] After blocking Fc receptors through incubation with an anti-mouse CD16/32 antibody (clone 2.4G2, dilution 1:100, Cat BE0307), cells were stained with fluorescence-labeled anti-mouse monoclonal antibodies. […] Flow cytometry data were obtained using a Gallios flow cytometer (Beckman Coulter) and analyzed with FlowJo software (version 10; FlowJo, LLC). […]

For the compound `CCN(CC)C(=S)SSC(=S)N(CC)CC` [DSF, disulfiram], the “number of tumor-associated monocytes/macrophages” value (day 20 after tumor inoculation) is “reduced”. Further, where the note is “oral DSF in diet (0.8 mg DSF/1 g CE-2) from 4 days after inoculation”, the subcutaneous tumor growth entry was “inhibited”.
